These results are taken from US20240158370A1, “CK1 alpha AND DUAL CK1 alpha / GSPT1 DEGRADING COMPOUNDS” (Innovo Therapeutics, Inc., priority 2022, published 2024).

One assay concerns the target GSPT1 (Homo sapiens, UniProt P15170+Q96SW2). Put plainly: HiBiT degradation assay, GSPT1, Procedure A. Particulars: six hours incubation. On the set-up: HiBit-GSPT1 KI HEK293(LgBit) Cells; host or cells: HEK293(LgBit) knock-in cells. The assay is classed as cell-based. The gist of the method:
(§1)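 Cells in DMEM + 10% FBS were treated with compound in a ten-point dose response from 10 μM to 0.005 μM (0.1% DMSO) for six hours at 37° C. Lysis with Nano-Glo HiBiT detection reagent followed, with luminescence read. DC50 and Ymin came from a 4-parameter fit.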

Another assay addresses T1, CK1α (Homo sapiens, UniProt P48729+Q96SW2).
T1 construct: CSNK1A1-HiBit KI HEK293(LgBit) Cells; host or cells: HEK293(LgBit) knock-in cells
Put plainly: HiBiT degradation assay, CK1α, Procedure A. The assay is classed as cell-based. Particulars: six hours incubation. The gist of the method:
as §1
For orientation: HiBiT is a short tag that completes a luciferase, so light tracks the accessible tagged protein.

The structures appear in SMILES notation.

Chain of GSPT1 (P15170 whole entry): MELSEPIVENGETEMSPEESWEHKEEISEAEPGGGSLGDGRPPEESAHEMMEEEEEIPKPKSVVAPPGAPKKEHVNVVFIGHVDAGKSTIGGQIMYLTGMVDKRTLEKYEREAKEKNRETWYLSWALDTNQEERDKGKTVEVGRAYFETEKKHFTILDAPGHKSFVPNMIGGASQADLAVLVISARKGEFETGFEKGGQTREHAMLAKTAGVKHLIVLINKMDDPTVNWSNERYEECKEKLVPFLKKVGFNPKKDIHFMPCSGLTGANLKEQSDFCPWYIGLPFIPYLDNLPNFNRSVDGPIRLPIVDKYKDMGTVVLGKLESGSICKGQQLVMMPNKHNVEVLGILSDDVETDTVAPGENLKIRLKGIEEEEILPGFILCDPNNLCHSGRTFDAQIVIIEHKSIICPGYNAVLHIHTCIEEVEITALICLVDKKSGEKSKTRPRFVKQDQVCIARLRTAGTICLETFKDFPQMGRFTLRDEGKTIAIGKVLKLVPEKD
Chain of GSPT1 (Q96SW2 whole entry): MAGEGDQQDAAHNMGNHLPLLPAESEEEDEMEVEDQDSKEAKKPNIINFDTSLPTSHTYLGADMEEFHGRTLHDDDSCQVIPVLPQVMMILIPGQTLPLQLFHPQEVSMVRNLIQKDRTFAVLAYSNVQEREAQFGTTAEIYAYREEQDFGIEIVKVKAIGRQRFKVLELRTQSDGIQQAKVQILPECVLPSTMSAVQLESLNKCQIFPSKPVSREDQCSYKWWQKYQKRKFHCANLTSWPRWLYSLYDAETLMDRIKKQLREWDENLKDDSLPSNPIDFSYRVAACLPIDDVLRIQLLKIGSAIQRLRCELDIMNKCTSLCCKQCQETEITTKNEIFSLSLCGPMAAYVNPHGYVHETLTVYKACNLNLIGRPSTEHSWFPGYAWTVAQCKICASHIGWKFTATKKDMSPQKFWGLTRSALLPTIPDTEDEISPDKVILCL
Chain of GSPT1 (Q16531 whole entry partner): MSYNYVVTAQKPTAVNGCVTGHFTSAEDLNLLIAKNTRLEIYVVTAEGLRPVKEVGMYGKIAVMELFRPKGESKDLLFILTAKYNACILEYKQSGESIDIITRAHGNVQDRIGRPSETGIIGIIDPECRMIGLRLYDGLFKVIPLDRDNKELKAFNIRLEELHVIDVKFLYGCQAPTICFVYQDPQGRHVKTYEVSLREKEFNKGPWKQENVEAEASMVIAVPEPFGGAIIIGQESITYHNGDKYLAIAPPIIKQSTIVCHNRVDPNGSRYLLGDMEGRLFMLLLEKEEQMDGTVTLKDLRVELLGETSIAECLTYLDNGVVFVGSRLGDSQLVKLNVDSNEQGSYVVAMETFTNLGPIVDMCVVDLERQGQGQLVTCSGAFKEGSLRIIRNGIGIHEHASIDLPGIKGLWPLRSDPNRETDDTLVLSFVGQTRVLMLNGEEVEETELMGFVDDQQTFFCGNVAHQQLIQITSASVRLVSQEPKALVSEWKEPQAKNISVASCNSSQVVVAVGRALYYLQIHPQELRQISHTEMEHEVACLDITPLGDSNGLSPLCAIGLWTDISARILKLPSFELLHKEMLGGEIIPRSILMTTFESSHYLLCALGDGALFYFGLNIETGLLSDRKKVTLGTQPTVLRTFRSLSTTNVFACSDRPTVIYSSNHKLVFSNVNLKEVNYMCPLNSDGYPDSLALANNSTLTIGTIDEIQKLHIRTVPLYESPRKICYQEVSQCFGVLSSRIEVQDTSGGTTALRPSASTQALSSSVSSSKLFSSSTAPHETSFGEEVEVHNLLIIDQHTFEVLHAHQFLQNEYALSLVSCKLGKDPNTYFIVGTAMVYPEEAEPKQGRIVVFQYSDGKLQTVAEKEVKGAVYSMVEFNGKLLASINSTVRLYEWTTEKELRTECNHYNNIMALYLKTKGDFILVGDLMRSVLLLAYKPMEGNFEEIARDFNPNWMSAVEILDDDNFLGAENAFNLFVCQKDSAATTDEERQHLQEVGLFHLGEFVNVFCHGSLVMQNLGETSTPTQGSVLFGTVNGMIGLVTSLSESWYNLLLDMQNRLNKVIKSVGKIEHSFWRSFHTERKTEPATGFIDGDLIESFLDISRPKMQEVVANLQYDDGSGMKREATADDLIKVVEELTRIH
T1 sequence (P48729 whole entry): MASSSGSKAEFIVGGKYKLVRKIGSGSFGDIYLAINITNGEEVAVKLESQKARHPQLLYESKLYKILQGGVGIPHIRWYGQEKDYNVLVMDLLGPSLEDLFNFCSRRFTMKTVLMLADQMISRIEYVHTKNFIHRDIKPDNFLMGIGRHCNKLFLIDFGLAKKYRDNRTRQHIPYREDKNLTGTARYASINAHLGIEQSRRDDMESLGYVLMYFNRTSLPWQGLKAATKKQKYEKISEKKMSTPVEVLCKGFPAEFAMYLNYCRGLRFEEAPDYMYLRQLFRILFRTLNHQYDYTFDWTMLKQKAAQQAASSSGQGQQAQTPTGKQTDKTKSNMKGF
T1 sequence (Q96SW2 whole entry): as the sequence (Q96SW2 whole entry) above
T1 sequence (Q16531 whole entry partner): as the sequence (Q16531 whole entry partner) above

With `COc1ccc(-c2c(-c3ccc4c(c3)CN(C3CCC(=O)NC3=O)C4=O)cnn2C)c(C)c1` (stereo not shown) [Example 143], at GSPT1, the DC50 is no less than 25 nM and the “GSPT1 Ymin” value is “F (F = >75-100% remaining)”. For the same compound, on CK1α, the “CK1α Ymin” value was “D (D = >10- 25% remaining)” and the DC50 was less than 25 nM.
Consider `Cn1ncc(-c2ccc3c(c2)CN(C2CCC(=O)NC2=O)C3=O)c1-c1ccc(-c2ccccc2)cc1` (stereo not shown) [Example 144], for which, on GSPT1, the 50% degradation concentration (DC50) was no less than 25 nM and the “GSPT1 Ymin” value is listed as “F (F = >75-100% remaining)”. Moreover, on CK1α, the “CK1α Ymin” value is on record as “E (E = >25-75% remaining)” and the DC50 is less than 25 nM.
Taken in the same sequence, the figures for `Cn1ncc(-c2ccc3c(c2)CN(C2CCC(=O)NC2=O)C3=O)c1-c1ccccc1-c1ccccc1` (stereo not shown) [Example 145] were less than 25 nM, “F (F = >75-100% remaining)”, “C (C = 0-10% remaining)” and less than 25 nM.
Taken in the same sequence, the figures for `COc1ccc(-c2c(-c3ccc4c(c3)CN(C3CCC(=O)NC3=O)C4=O)cnn2C)cc1Cl` (stereo not shown) [Example 146] were no less than 25 nM, “E (E = >25-75% remaining)”, “D (D = >10- 25% remaining)” and less than 25 nM.
Regarding `Cn1ncc(-c2ccc3c(c2)CN(C2CCC(=O)NC2=O)C3=O)c1-c1cccc(N)c1` (stereo not shown) [Example 147], at GSPT1, the DC50 is no less than 25 nM and the “GSPT1 Ymin” value was “F (F = >75-100% remaining)”. Also, on CK1α, the “CK1α Ymin” value was “C (C = 0-10% remaining)” and the DC50 was less than 25 nM.
Taken in the same sequence, the figures for `Cn1ncc(-c2ccc3c(c2)CN(C2CCC(=O)NC2=O)C3=O)c1-c1ccc(Cl)cc1Cl` (stereo not shown) [Example 148] were less than 25 nM, “F (F = >75-100% remaining)”, “E (E = >25-75% remaining)” and less than 25 nM.
As for `COc1ccc2cc(-c3c(-c4ccc5c(c4)CN(C4CCC(=O)NC4=O)C5=O)cnn3C)ccc2c1` (stereo not shown) [Example 149], at GSPT1, the DC50 was less than 25 nM and the “GSPT1 Ymin” value is “F (F = >75-100% remaining)”. Besides, at CK1α, the “CK1α Ymin” value is given as “D (D = >10- 25% remaining)” and the DC50 is less than 25 nM.
Consider `Cn1ncc(-c2ccc3c(c2)CN(C2CCC(=O)NC2=O)C3=O)c1-c1ccc(-n2cccn2)cc1` (stereo not shown) [Example 150], for which, at GSPT1, the DC50 is no less than 25 nM and the “GSPT1 Ymin” value is reported as “F (F = >75-100% remaining)”. Further, on CK1α, the “CK1α Ymin” value is “D (D = >10- 25% remaining)” and the half-maximal degradation concentration (DC50) was less than 25 nM.
Taken in the same sequence, the figures for `Cc1ccc(-c2c(-c3ccc4c(c3)CN(C3CCC(=O)NC3=O)C4=O)cnn2C)cc1F` (stereo not shown) [Example 151] were no less than 25 nM, “F (F = >75-100% remaining)”, “E (E = >25-75% remaining)” and less than 25 nM.
Regarding `Cn1ncc(-c2ccc3c(c2)CN(C2CCC(=O)NC2=O)C3=O)c1-c1ccccc1C#N` (stereo not shown) [Example 152], at GSPT1, the DC50 is no less than 25 nM and the “GSPT1 Ymin” value is given as “F (F = >75-100% remaining)”. Also, on CK1α, the “CK1α Ymin” value is listed as “E (E = >25-75% remaining)” and the half-maximal degradation concentration (DC50) was no less than 25 nM.
`Cn1ncc(-c2ccc3c(c2)CN(C2CCC(=O)NC2=O)C3=O)c1-c1ccc(-c2ccncc2)cc1` (stereo not shown) [Example 153]: at GSPT1, the DC50 is no less than 25 nM and the “GSPT1 Ymin” value was “F (F = >75-100% remaining)”. Also, at CK1α, the “CK1α Ymin” value was “D (D = >10- 25% remaining)” and the DC50 was less than 25 nM.
`CN1CCN(Cc2ccc(-c3c(-c4ccc5c(c4)CN(C4CCC(=O)NC4=O)C5=O)cnn3C)cc2)CC1` (stereo not shown) [Example 154]: at GSPT1, the DC50 was no less than 25 nM and the “GSPT1 Ymin” value was “F (F = >75-100% remaining)”. Besides, on CK1α, the “CK1α Ymin” value is recorded as “E (E = >25-75% remaining)” and the DC50 is no less than 25 nM.
Turning to `Cn1ncc(-c2ccc3c(c2)CN(C2CCC(=O)NC2=O)C3=O)c1-c1ccc2c(c1)OCC2` (stereo not shown) [Example 155], at GSPT1, the DC50 is no less than 25 nM and the “GSPT1 Ymin” value is given as “F (F = >75-100% remaining)”. Further, at CK1α, the “CK1α Ymin” value is reported as “E (E = >25-75% remaining)” and the DC50 is less than 25 nM.
With `Cn1ncc(-c2ccc3c(c2)CN(C2CCC(=O)NC2=O)C3=O)c1-c1ccc(CO)cc1` (stereo not shown) [Example 156], on GSPT1, the DC50 is no less than 25 nM and the “GSPT1 Ymin” value was “F (F = >75-100% remaining)”. Further, at CK1α, the “CK1α Ymin” value is “D (D = >10- 25% remaining)” and the DC50 is no less than 25 nM.
Turning to `Cc1ccc(-c2c(-c3ccc4c(c3)CN(C3CCC(=O)NC3=O)C4=O)cnn2C)cc1CO` (stereo not shown) [Example 157], on GSPT1, the half-maximal degradation concentration (DC50) was no less than 25 nM and the “GSPT1 Ymin” value is reported as “F (F = >75-100% remaining)”. In addition, on CK1α, the “CK1α Ymin” value is “E (E = >25-75% remaining)” and the DC50 is no less than 25 nM.
With `Cn1ncc(-c2ccc3c(c2)CN(C2CCC(=O)NC2=O)C3=O)c1-c1cccc(CN2CCCC2)c1` (stereo not shown) [Example 158], at GSPT1, the DC50 was no less than 25 nM and the “GSPT1 Ymin” value is “F (F = >75-100% remaining)”. Moreover, on CK1α, the “CK1α Ymin” value is “E (E = >25-75% remaining)” and the half-maximal degradation concentration (DC50) is no less than 25 nM.
Turning to `Cn1ncc(-c2ccc3c(c2)CN(C2CCC(=O)NC2=O)C3=O)c1-c1ccc(N2CCCC2)cc1` (stereo not shown) [Example 159], at GSPT1, the DC50 was no less than 25 nM and the “GSPT1 Ymin” value is on record as “F (F = >75-100% remaining)”. Besides, on CK1α, the “CK1α Ymin” value is reported as “D (D = >10- 25% remaining)” and the DC50 is less than 25 nM.
Taken in the same sequence, the figures for `Cn1ncc(-c2ccc3c(c2)CN(C2CCC(=O)NC2=O)C3=O)c1-c1ccc(S(=O)(=O)NC2CCCCC2)cc1` (stereo not shown) [Example 160] were no less than 25 nM, “C (C = 0-10% remaining)”, “E (E = >25-75% remaining)” and no less than 25 nM.
On to `Cc1ccccc1-c1c(-c2ccc3c(c2)CN(C2CCC(=O)NC2=O)C3=O)ncn1C` (stereo not shown) [Example 161], for which, at GSPT1, the DC50 is no less than 25 nM and the “GSPT1 Ymin” value is “F (F = >75-100% remaining)”. In addition, at CK1α, the “CK1α Ymin” value is reported as “D (D = >10- 25% remaining)” and the DC50 was less than 25 nM.
Taken in the same sequence, the figures for `Cc1cccc(-c2c(-c3ccc4c(c3)CN(C3CCC(=O)NC3=O)C4=O)ncn2C)c1` (stereo not shown) [Example 162] were less than 25 nM, “E (E = >25-75% remaining)”, “C (C = 0-10% remaining)” and less than 25 nM.
For `Cn1cnc(-c2ccc3c(c2)CN(C2CCC(=O)NC2=O)C3=O)c1-c1ccc(O)cc1` (stereo not shown) [Example 163], on GSPT1, the DC50 is no less than 25 nM and the “GSPT1 Ymin” value is “E (E = >25-75% remaining)”. Also, at CK1α, the “CK1α Ymin” value is on record as “C (C = 0-10% remaining)” and the DC50 was less than 25 nM.
Taken in the same sequence, the figures for `Cn1cnc(-c2ccc3c(c2)CN(C2CCC(=O)NC2=O)C3=O)c1-c1ccccc1F` (stereo not shown) [Example 164] were less than 25 nM, “E (E = >25-75% remaining)”, “C (C = 0-10% remaining)” and less than 25 nM.
Taken in the same sequence, the figures for `Cn1cnc(-c2ccc3c(c2)CN(C2CCC(=O)NC2=O)C3=O)c1-c1ccc(C#N)cc1` (stereo not shown) [Example 165] were no less than 25 nM, “F (F = >75-100% remaining)”, “D (D = >10- 25% remaining)” and less than 25 nM.
Taken in the same sequence, the figures for `Cc1ccc(-c2c(-c3ccc4c(c3)CN(C3CCC(=O)NC3=O)C4=O)ncn2C)c(C)c1` (stereo not shown) [Example 166] were no less than 25 nM, “E (E = >25-75% remaining)”, “E (E = >25-75% remaining)” and less than 25 nM.
On to `Cc1cccc(-c2c(-c3ccc4c(c3)CN(C3CCC(=O)NC3=O)C4=O)ncn2C)c1C` (stereo not shown) [Example 167], for which, at GSPT1, the DC50 is less than 25 nM and the “GSPT1 Ymin” value is on record as “F (F = >75-100% remaining)”. For the same compound, at CK1α, the “CK1α Ymin” value is “E (E = >25-75% remaining)” and the DC50 was less than 25 nM.
With `Cc1c(F)cccc1-c1c(-c2ccc3c(c2)CN(C2CCC(=O)NC2=O)C3=O)ncn1C` (stereo not shown) [Example 169], on GSPT1, the DC50 was no less than 25 nM and the “GSPT1 Ymin” value is “F (F = >75-100% remaining)”. On CK1α, the “CK1α Ymin” value is on record as “E (E = >25-75% remaining)” and the DC50 was less than 25 nM.
Turning to `Cc1ccc(F)c(-c2c(-c3ccc4c(c3)CN(C3CCC(=O)NC3=O)C4=O)ncn2C)c1` (stereo not shown) [Example 170], at GSPT1, the DC50 is no less than 25 nM and the “GSPT1 Ymin” value is on record as “F (F = >75-100% remaining)”. At CK1α, the “CK1α Ymin” value was “D (D = >10- 25% remaining)” and the DC50 was less than 25 nM.
Taken in the same sequence, the figures for `Cc1cccc(-c2c(-c3ccc4c(c3)CN(C3CCC(=O)NC3=O)C4=O)ncn2C)c1F` (stereo not shown) [Example 171] were less than 25 nM, “F (F = >75-100% remaining)”, “D (D = >10- 25% remaining)” and less than 25 nM.
For the compound `Cc1cccc(F)c1-c1c(-c2ccc3c(c2)CN(C2CCC(=O)NC2=O)C3=O)ncn1C` (stereo not shown) [Example 172], on GSPT1, the DC50 is no less than 25 nM and the “GSPT1 Ymin” value is “F (F = >75-100% remaining)”. Besides, on CK1α, the “CK1α Ymin” value is “E (E = >25-75% remaining)” and the DC50 was less than 25 nM.
Taken in the same sequence, the figures for `Cn1ncc(-c2ccc3c(c2)CN(C2CCC(=O)NC2=O)C3=O)c1-c1cccc(Cl)c1` (stereo not shown) [Example 173] were no less than 25 nM, “F (F = >75-100% remaining)”, “E (E = >25-75% remaining)” and less than 25 nM.
Regarding `Cn1ncc(-c2ccc3c(c2)CN(C2CCC(=O)NC2=O)C3=O)c1-c1ccc(Cl)cc1` (stereo not shown) [Example 174], at GSPT1, the DC50 is less than 25 nM and the “GSPT1 Ymin” value was “E (E = >25-75% remaining)”. Further, on CK1α, the “CK1α Ymin” value was “D (D = >10- 25% remaining)” and the DC50 is less than 25 nM.

In general, DC50 refers to the midpoint of the concentration-degradation curve. Higher therefore signals a less potent degrader.
